Consider five compounds from the NIST ThermoML archive (doi:10.1021/je201053v).

Numbers after ± are expanded uncertainties.

For the data set the following is noted: Liquid; for mass density: 293.15 K, 101.33 kPa, Vibrating tube method.

In general, mass density refers to the mass of a sample divided by its volume. What is called vapor or sublimation pressure is the equilibrium pressure above the liquid or solid. `Cc1cccc(C)c1` [1,3-dimethylbenzene]: the mass density turned out to be 864.11 ± 0.91 kg/m3. In addition, the “vapor or sublimation pressure” value (412.27 K) was found to be 101.33 ± 1.4 kPa.
In the case of `CCc1ccccc1` [ethylbenzene], the mass density is reported as 866.54 ± 0.58 kg/m3. In addition, for the setting “409.27 K”, the “vapor or sublimation pressure” value stood at 101.33 ± 1.3 kPa.
For `Cc1ccccc1C` [1,2-dimethylbenzene], the mass density is reported as 879.68 ± 0.93 kg/m3. The “vapor or sublimation pressure” value (417.58 K) is given as 101.33 ± 1.9 kPa.
In the case of `Cc1ccc(C)cc1` [1,4-dimethylbenzene], the mass density is given as 861.21 ± 0.91 kg/m3. For the same compound, the “vapor or sublimation pressure” value (411.51 K) was found to be 101.33 ± 1.9 kPa.
`CCCCO` [butan-1-ol]: the mass density is given as 809.5 ± 0.24 kg/m3. In addition, the “vapor or sublimation pressure” value (390.85 K) amounted to 101.33 ± 1.3 kPa.
